{"source": "patent US8084486B2", "about": "“Substituted arylpyrazoles” (Pfizer Limited, priority 2003, dated 2011)", "tested_on": "Ctenocephalides felis", "test": "flea membrane feed screen", "set-up": "species or system Ctenocephalides felis (cat flea)", "details": "at 30 μg/ml", "method": "The flea membrane feed screen is used to measure the biological activities of the compounds claimed. The assay involves in vitro testing against Ctenocephalides felis conducted according to the following general procedure.\nFleas are cultured in vitro using dog blood. 25-30 adult Ctenocephalides felis (cat flea) were collected and placed in a test chamber (50 ml polystyrene tube with fine nylon mesh sealing the end). Citrated dog blood was prepared by adding aqueous sodium citrate solution (10 ml, 20% w/v, 20 g sodium citrate in 100 ml water) to dog blood (250 ml). Test compounds were dissolved in dimethylsulfoxide to give a working stock solution of 4 mg/ml. The stock solution (12.5 μl) was added to citrated dog blood (5 ml) to give an initial test concentration of 10 μg/ml. For testing at 30 μg/ml, working stock solutions of 12 mg/ml were prepared.\nCitrated dog blood containing the test compound (5 ml, 10 μg/ml) was placed into a plastic petri dish lid, which was kept at 37° C. on a heated pad. Parafilm was stretched over the open top to form a tight membrane for the fleas to feed through. The test chamber containing the fleas was placed carefully onto the parafilm membrane and the fleas commenced feeding. […]\nThe fleas were observed and the percentage of fleas killed recorded. […]", "data": [{"molecule": "N#Cc1nn(-c2c(Cl)cc(C(F)(F)F)cc2Cl)c(N)c1C1CC1(Br)Br", "note": "(stereo not shown) [5-amino-3-cyano-4-(2,2-dibromocyclopropyl)-1-(2,6-dichlorophenyl-4-trifluoromethyl-)pyrazole]", "values": [{"measurement": "activity in the ED80 flea screen", "result": "inactive"}]}]}
